Publication PMC6718453 (Frontiers in Aging Neuroscience, 2019)
Values after ≈ are worked out from the molar mass of the structure shown.

Molecular target: acetylcholinesterase (AChE)

**Q.** Which “IC50 ± SEM” value does the source give for O=C(/C=C/C=C/c1ccc2c(c1)OCO2)N1CCCCC1 [piperine] here?
**A.** Its value is 76.6 ± 0.08 µg/mL (≈ 268 µM).
